Experiment in all cases: NCI tumour cell line growth inhibition, 48 h
Test [1] relates to RPMI-8226 leukemia.
Test [2] concerns SK-MEL-5 melanoma.
The subject of test [3] is OVCAR-8 ovarian.
Test [4] has as its system EKVX NSCLC.
Test [5] has as its system SNB-19 CNS.
For test [6], the system named is ACHN renal.
Test [7] deals with OVCAR-3 ovarian.
The subject of test [8] is NCI-H522 lung.
Test [9] deals with HOP-62 NSCLC.
The subject of test [10] is CAKI-1 renal.

The source of these data is PubChem BioAssay (NCI).

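Exposure lasted 48 hours, with cells grown in 96-well plates and compounds tested at five concentrations. GI50 is the concentration that inhibits growth by half. Definition used: TGI = concentration required for complete inhibition of growth.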

Take `NC(N)=N/N=C/c1c(-c2cccs2)nc2n1CCS2`: the GI50 in [1] was 18.6 µM; in test [2], 15.6 µM; in test [3] it was 46.5 µM; in test [4], 27.7 µM; in test [5] it was 22 µM; in test [6], 20.8 µM. Moreover, the GI50 in test [7] was 15.5 µM; in test [8], 38.2 µM. Besides, the TGI in [1] is 39.9 µM; in [2], 29.1 µM; in test [3], more than 100 µM; in test [4] it was 85.7 µM; in [5], 57.8 µM; in test [6] it was 40.9 µM. The values for the TGI in test [7] and in test [8] were 32.7 µM and more than 100 µM, respectively.
With `OC1CCSc2ccccc21` (centres undefined), the TGI in test [9], in test [1], in [2], in test [3], in [4] and in test [5] was more than 100 µM in each case. Also, the TGI in [6], in [7], in [10] and in test [8] was more than 100 µM each time.
Consider `CCOC(=O)c1cccc(N=Nc2ncc(/C=C/C(=O)OC)[nH]2)c1`, for which the TGI in test [9] is 51.3 µM; in test [1], 40.5 µM; in test [2] it was 30.1 µM; in [3], 63.6 µM; in test [4] it was more than 100 µM; in [5] it was more than 100 µM. In addition, the TGI was 72 µM in test [6], 71.1 µM in test [7], more than 100 µM in [10] and 47.2 µM in test [8].
Take `C#C[C@]1(O)[C@@H](CO)O[C@@H](n2ccc(=O)[nH]c2=O)[C@@H]1O`: the TGI in [9] is 1.05 µM; in test [1], more than 100 µM; in [2], 13 µM; in test [3], more than 100 µM; in test [4] it was more than 100 µM; in test [5], more than 62.1 µM. In addition, the TGI is 0.602 µM in [6] and 1.64 µM in [8].
For `CN(CCN1C(=O)c2cccc3cccc(c23)C1=O)CCN1C(=O)c2cccc3cccc(c23)C1=O`, the TGI in [9] is 26.4 µM; in test [2], more than 100 µM; in test [3], 19.2 µM; in test [4] it was more than 100 µM; in test [5], 16.8 µM; in [6], 20.7 µM. In addition, the TGI in [7] was 74.8 µM; in test [10] it was more than 100 µM; in [8], 40.6 µM.
Turning to `c1ccc(C[N+]23C(CC[C@H]2c2ccccc2)CC[C@H]3c2ccccc2)cc1` (some centres undefined), the TGI in test [9] was more than 100 µM; in [1], 26.4 µM; in test [2], 19.1 µM; in test [3] it was more than 100 µM; in test [4] it was more than 100 µM; in [5] it was more than 100 µM. Besides, the TGI was more than 100 µM in [6], 90 µM in [7], more than 100 µM in [10] and more than 100 µM in test [8].
For `CC(CCCCNC(=O)OC(C)(C)C)NC(=O)NC(C)CCCCNC(=O)OC(C)(C)C` (centres undefined), the TGI in [9], in test [2], in test [3], in test [4], in test [5] and in test [6] was more than 100 µM each time. Further, the TGI in test [7], in test [10] and in test [8] was more than 100 µM each time.
As for `Fc1c(F)c(F)c(CSc2nc3ccccc3[nH]2)c(F)c1F`, the TGI in test [9], in test [1], in test [2], in test [3], in test [4] and in [5] was more than 100 µM throughout. In addition, the TGI in test [6], in [7], in [10] and in [8] was more than 100 µM throughout.
As to `Oc1ccc(Cl)cc1C1=Nn2c(COc3ccc4c(c3)CCCC4)nnc2SC1`, the TGI in [9] worked out at 27.5 µM; in test [1], 19.3 µM; in test [2] it was 19 µM; in test [3], 30.9 µM; in [4], 34.7 µM; in test [5], 50.5 µM. The TGI in [6] is 49.7 µM; in test [7], 29.8 µM; in test [10], 49.6 µM; in [8] it was 21.6 µM.
Regarding `COc1cc2cc[n+](C)c(Cc3ccc(Oc4cc(Cc5c6cc(OC)c(OC)cc6cc[n+]5C)ccc4OC)cc3)c2cc1OC`, the TGI in test [9], in [1], in test [2], in test [3], in test [4] and in [5] was more than 100 µM throughout. The TGI in test [6], in test [7], in [10] and in test [8] was more than 100 µM throughout.
`CCCC(=O)Nc1cc(/C=C/C(=O)N2CC(CCl)c3c2cc(OC(C)=O)c2[nH]cc(C)c32)n(C)c1` (centres undefined): the TGI is 0.00389 µM in [9]; 0.00762 µM in [1]; 5.84e-05 µM in [2]; 0.000858 µM in test [3]; 0.00665 µM in test [4]; 0.0436 µM in test [5]. In addition, the TGI in [8] was 4.26e-05 µM.
As for `Cc1c2ccccc2cc2cccc[n+]12`, the TGI in test [9] was more than 100 µM; in test [1] it was more than 100 µM; in [2] it was 92.3 µM; in test [3], more than 100 µM; in test [4], 92.5 µM; in test [5], more than 100 µM. Also, the TGI in [6] is more than 100 µM; in test [7], more than 100 µM; in [8], 37.4 µM.
For the molecule `O=S(C(c1ccccc1)=P(c1ccccc1)(c1ccccc1)c1ccccc1)c1ccc(Cl)cc1` (centres undefined), the TGI in test [9] is 64.6 µM; in test [1], more than 100 µM; in [2], 27 µM; in test [3], more than 100 µM; in test [4], more than 100 µM; in [6], 60 µM. The TGI in [7] is more than 100 µM; in test [10], more than 100 µM; in test [8], 38.6 µM.
With `CCCCSCCC(N)P(=O)(O)O` (centres undefined), the TGI in test [9], in test [1], in test [2], in test [3], in [5] and in test [6] was more than 100 µM each time. Besides, the TGI in [7], in test [10] and in test [8] was more than 100 µM each time.
For the molecule `CC(C)C(=O)CC(c1ccc(Br)cc1)N1N=C(C(C)C)CC1c1ccc(Br)cc1` (centres undefined), the TGI in test [9], in test [3], in test [4], in test [5], in [6] and in test [7] was more than 100 µM throughout. The TGI in [10] and in test [8] was more than 100 µM throughout.
Take `COc1ccc2c3c([nH]c2c1)[C@H](C=C(C)C)N1C(=O)[C@@H]2CCCN2C(=O)[C@@H]1C3`: the TGI in test [9], in [1], in [3], in [4], in test [5] and in [6] was more than 100 µM throughout. In addition, the TGI in test [7], in test [10] and in test [8] was more than 100 µM throughout.
Regarding `O=C1CNc2cc(N3CCCCC3)ccc2N1`, the TGI in test [9] was more than 100 µM; in test [1] it was more than 100 µM; in test [2], more than 100 µM; in test [3] it was more than 100 µM; in test [4], 50.9 µM; in test [5], more than 100 µM. Besides, the TGI in test [6], in test [7] and in test [8] was more than 100 µM throughout.
Take `Clc1cccc(/C=c2\nc(-c3ccccc3)n3c2nc2ccccc23)c1`: the TGI in test [9], in [1], in test [2], in [3], in [4] and in [5] was more than 100 µM throughout. For the same molecule, the TGI in test [7] and in test [10] was more than 100 µM throughout.
With `CN(CCCNC(=O)c1nn(-c2ccccc2)c2c1Cc1ccccc1-2)CCCNC(=O)c1nn(-c2ccccc2)c2c1Cc1ccccc1-2`, the TGI in [1] turned out to be 4.22 µM; in [2], 3.02 µM; in test [3], 3.39 µM; in test [5], 3.07 µM; in [6], 3.12 µM; in test [7] it was 3.13 µM. Further, the TGI worked out at 2.46 µM in [10] and 2.63 µM in test [8].
As for `CS(=O)(=O)Nc1cccc(-c2ccc3ncnc(Nc4cncc(Cl)c4)c3c2)c1`, the GI50 in [9] is 2.7 µM; in test [1], 2.14 µM; in test [2] it was 1.75 µM; in [3], 3.22 µM; in [5], 3.84 µM; in test [6] it was 1.11 µM. In addition, the figures for the GI50 in test [10] and in test [8] were 2.57 µM and 1.75 µM, respectively. Moreover, the TGI in test [9] is 17.8 µM; in test [1], 6.77 µM; in [2], 3.74 µM; in test [3], more than 100 µM; in test [5] it was more than 100 µM; in test [6], more than 100 µM. Besides, the TGI in test [10] was more than 100 µM; in test [8], 4.93 µM.
